According to patent US5057503A, “Derivativized polysaccharides with biologic activity, method of their isolation, and uses therefor” (The Brigham and Women's Hospital, priority 1989, dated 1991):

Tested on: human monocyte β-glucan receptors
Assay: Inhibition of adherent monocyte phagocytosis of zymosan particles after pretreatment with isolated carbohydrates
Format: cell-based
Conditions: for phagocytosis-inhibiting activity after derivatization with 2-aminopyridine (in words): 100 ng/ml tested; for activity after derivatization with 2-aminopyridine (in words): as much as 800 ng/ml in the functional monocyte assays; for phagocytosis-inhibiting activity / interaction with human monocyte β-glucan receptors (in words): concentration not given

phagocytosis-inhibiting activity after derivatization with 2-aminopyridine (in words) | activity after derivatization with 2-aminopyridine (in words) | phagocytosis-inhibiting activity / interaction with human monocyte β-glucan receptors (in words) | SMILES | effect on monocyte ingestion of zymosan (in words) (500 ng/ml to 100 μg/ml, without derivatization) | proportion of monocytes ingesting zymosan after pretreatment (100 μg/ml, without derivatization, without pretreatment 67% (synthetic β-heptaglucoside) and 50% (maltoheptose)) [%]
 |  |  | OC[C@H]1O[C@H](O[C@H]2[C@H](O)[C@@H](O)[C@@H](O[C@H]3[C@H](O)[C@@H](O)[C@@H](O[C@H]4[C@H](O)[C@@H](O)[C@@H](O[C@H]5[C@H](O)[C@@H](O)[C@@H](O[C@H]6[C@H](O)[C@@H](O)[C@@H](O[C@H]7[C@H](O)[C@@H](O)C(O)O[C@@H]7CO)O[C@@H]6CO)O[C@@H]5CO)O[C@@H]4CO)O[C@@H]3CO)O[C@@H]2CO)[C@H](O)[C@@H](O)[C@@H]1O (some centres unmarked) [Maltoheptose] | no effect | 52
not acquired | remained inactive | remained inactive | OC[C@H]1O[C@@H](OC[C@H]2O[C@@H](OC[C@H]3O[C@@H](OC[C@H]4O[C@@H](OC[C@H]5OC(Nc6ccccn6)[C@H](O)[C@@H](O)[C@@H]5O)[C@H](O)[C@@H](O[C@@H]5O[C@H](CO)[C@@H](O)[C@H](O)[C@H]5O)[C@@H]4O)[C@H](O)[C@@H](O)[C@@H]3O)[C@H](O)[C@@H](O[C@@H]3O[C@H](CO)[C@@H](O)[C@H](O)[C@H]3O)[C@@H]2O)[C@H](O)[C@@H](O)[C@@H]1O (stereo partly drawn) [Derivatized synthetic β-heptaglucoside] |  | 
not acquired | remained inactive | remained inactive | OC[C@H]1O[C@H](O[C@H]2[C@H](O)[C@@H](O)[C@@H](O[C@H]3[C@H](O)[C@@H](O)[C@@H](O[C@H]4[C@H](O)[C@@H](O)[C@@H](O[C@H]5[C@H](O)[C@@H](O)[C@@H](O[C@H]6[C@H](O)[C@@H](O)[C@@H](O[C@H]7[C@H](O)[C@@H](O)C(Nc8ccccn8)O[C@@H]7CO)O[C@@H]6CO)O[C@@H]5CO)O[C@@H]4CO)O[C@@H]3CO)O[C@@H]2CO)[C@H](O)[C@@H](O)[C@@H]1O (some centres unmarked) [Derivatized maltoheptose] |  | 
